Test results: article PMC12606464, “Investigating NFE2L1 activators for targeted protein aggregate clearance: a follow-up study” (RSC Medicinal Chemistry, 2025)

System: proteasome subunit gene expression (PSMC4, PSMB7, PSMD12)
Experiment: RT-qPCR of proteasome genes in NFE2L1/NFE2L2-knockdown HEK293 cells
Assay type: cell-based, human
Settings: for NFE2L1 mRNA, mean diff between siRNA treatments, log2 / NFE2L2 mRNA, mean diff between siRNA treatments, log2 / PSMB7 mRNA, mean diff between siRNA treatments, log2 / PSMD12 mRNA, mean diff between siRNA treatments, log2: RUN89-treated
Protocol: Fig. 1 (A) Targeted library screening of RUN compounds using the 3×PSMA4-ARE-LUC dual reporter assay in HEK293 cells. Cells were exposed to RUN compounds (5 μM) for 16 hours, and luciferase activity was measured. Data are presented as the mean ± SD from three independent experiments (n = 3). Results are shown as a fold change in luminescence relative to DMSO-treated cells. Selected hit compounds are highlighted in distinct colours. (B) RUN-89 specifically activates the NFE2L1 pathway. The DDI2 knockout (KO) and parental (WT) HCT116 cells were transfected with the 3×PSMA4-ARE-LUC reporter and treated with 0.5 μM bortezomib (BTZ) and 5 μM RUN-89 for 16 hours. Data are presented as the Geomean ± GeoSD of three independent experiments (n = 3). Statistical analysis was performed on log2-transformed values using two-way repeated-measures ANOVA followed by Šídak's multiple comparison test. (C) RUN-89 selectively triggers downstream signaling events associated with NFE2L1 gene expression. HEK293 cells were transfected with lipid nanoparticles (LNPs) carrying siRNAs targeting NFE2L1 or NFE2L2. LNPs formulated with non-targeting siRNA served as a negative control. Following 24 hours of incubation, cells were treated with 7.5 μM RUN-89 or DMSO (vehicle) for an additional 16 hours. Expression of the proteasomal subunit gene PSMC4 was then quantified by RT-qPCR. Data are shown as the Geomean ± GeoSD from three independent biological replicates (n = 3). Log2-transformed data were analyzed using two-way repeated-measures ANOVA with the Geisser–Greenhouse correction, followed by Tukey's multiple comparison test with individual variances computed for each comparison. Additional results for NFE2L1, NFE2L2, PSMB7, and PSMD12 are presented in SI Fig. S10.
To further confirm that RUN-89 acts through NFE2L1-dependent signalling, we investigated the effect of selective knockdown of NFE2L1 and NFE2L2 on the induction of proteasomal genes. HEK293 cells (from ATCC CCL-247 (RRID:CVCL_0291)) were transfected with lipid nanoparticles (LNPs) carrying siRNAs targeting either NFE2L1 or NFE2L2, while non-targeting siRNA was used as a control. After treatment with RUN-89, transcript levels of several proteasome subunit genes were analyzed by RT-qPCR.
Figure S10: Effects of RUN-89 on NFE2L1- and NFE2L2-associated target genes following […]
HEK293 cells were transfected with lipid nanoparticles (LNPs) containing siRNAs against NFE2L1, NFE2L2, or a non-targeting control siRNA. After 24 hours, cells were treated with 7.5 μM RUN-89 or DMSO (vehicle) for an additional 16 h, and transcript levels of NFE2L1, NFE2L2, PSMB4, PSMB7, and PSMD12 were quantified by RT -qPCR. Data are presented as mean ± SD from three independent biological replicates (n = 3). Log₂ -transformed data were analyzed by two -way repeated-measures ANOVA with Geisser –Greenhouse correction, followed by Tukey’s multiple compa rison test with individual variances computed for each comparison.
2.16 Analysis of proteasome genes expression in NFE2L1/NFE2L2-
The corresponding HEK293 cells were seeded into 24-well culture plates (120,000 cells/well) and allowed to adhere overnight under standard culture conditions. On the following day, cells were transfected with siRNAs targeting NFE2L1, NFE2L2, or a non-targeting negative control siRNA (Table S2). Transfections were performed using a lipid nanoparticle (LNP) delivery system assembled as previously described,(7) with a final siRNA concentration of ~0.2 nmol per well. After 24 h of incubation, cells were treated with 7.5 µM […] or DMSO (vehicle control) for 16 h. Total RNA was then extracted, converted into cDNA, and analyzed by RT-qPCR using primers targeting proteasome genes (listed in Section 2.5, Quantitative RT-PCR, Table S1). Expression levels were normalized to RPLP0 mRNA. The […]

[1] = NFE2L1 siRNA vs. NFE2L1 + L2 siRNA
[2] = NFE2L2 siRNA vs. NFE2L1 + L2 siRNA
[3] = Non transfected vs. NFE2L1 + L2 siRNA
[4] = Non transfected vs. NFE2L1 siRNA
[5] = Non transfected vs. NFE2L2 siRNA
[6] = Non transfected vs. Scramble control siRNA
[7] = Scramble control siRNA vs. NFE2L1 + L2 siRNA
[8] = Scramble control siRNA vs. NFE2L1 siRNA
[9] = Scramble control siRNA vs. NFE2L2 siRNA

COc1ccc(/C=C2\CC(NC(=O)C3CCCC3)C/C(=C\c3ccc(OC)c(OC)c3)C2=O)cc1OC (centres unmarked) [RUN-89]
PSMC4 expression, mean log2, NFE2L1 + L2 siRNA (7.5 μM, 16 h, HEK293): 0.5367
PSMC4 expression, mean log2, NFE2L1 siRNA (7.5 μM, 16 h, HEK293): 0.5329
PSMC4 expression, mean log2, NFE2L2 siRNA (7.5 μM, 16 h, HEK293): 1.12
PSMC4 expression, mean log2, scramble control siRNA (7.5 μM, 16 h, HEK293): 1.335
PSMC4 expression, row mean of log2 values over all siRNA treatments (7.5 μM, 16 h, HEK293): 0.9981
PSMC4 expression, mean log2, non transfected (7.5 μM, 16 h, HEK293, no siRNA): 1.466
Induction of PSMC4 expression upon silencing of NFE2L1, but not NFE2L2 (HEK293, siRNA LNPs): markedly reduced
Mean diff, of log2-transformed values, DMSO vs. RUN89 (NFE2L1 + L2 siRNA): 0.1671
NFE2L1 mRNA, mean diff DMSO vs. RUN89, log2 (NFE2L1 + L2 siRNA): 0.4839
NFE2L1 mRNA, mean of log2-transformed values (NFE2L1 + L2 siRNA): -1.849
NFE2L2 mRNA, mean diff DMSO vs. RUN89, log2 (NFE2L1 + L2 siRNA): 0.1671
PSMB7 mRNA, mean diff DMSO vs. RUN89, log2 (NFE2L1 + L2 siRNA): -0.04295
PSMB7 mRNA, mean of log2-transformed values (NFE2L1 + L2 siRNA): -0.005215
PSMD12 mRNA, mean diff DMSO vs. RUN89, log2 (NFE2L1 + L2 siRNA): -1.247
PSMD12 mRNA, mean of log2-transformed values (NFE2L1 + L2 siRNA): 1.4
Mean diff, of log2-transformed values, DMSO vs. RUN89 (NFE2L1 siRNA): 0.3261
NFE2L1 mRNA, mean diff DMSO vs. RUN89, log2 (NFE2L1 siRNA): 0.5812
NFE2L1 mRNA, mean of log2-transformed values (NFE2L1 siRNA): -2.192
NFE2L2 mRNA, mean diff DMSO vs. RUN89, log2 (NFE2L1 siRNA): 0.3261
PSMB7 mRNA, mean diff DMSO vs. RUN89, log2 (NFE2L1 siRNA): 0.02314
PSMB7 mRNA, mean of log2-transformed values (NFE2L1 siRNA): -0.07162
PSMD12 mRNA, mean diff DMSO vs. RUN89, log2 (NFE2L1 siRNA): -1.239
PSMD12 mRNA, mean of log2-transformed values (NFE2L1 siRNA): 1.413
Mean diff, of log2-transformed values, DMSO vs. RUN89 (NFE2L2 siRNA): 0.07457
NFE2L1 mRNA, mean diff DMSO vs. RUN89, log2 (NFE2L2 siRNA): -0.06055
NFE2L1 mRNA, mean of log2-transformed values (NFE2L2 siRNA): -0.3257
NFE2L2 mRNA, mean diff DMSO vs. RUN89, log2 (NFE2L2 siRNA): 0.07457
PSMB7 mRNA, mean diff DMSO vs. RUN89, log2 (NFE2L2 siRNA): -0.4898
PSMB7 mRNA, mean of log2-transformed values (NFE2L2 siRNA): 0.4898
PSMD12 mRNA, mean diff DMSO vs. RUN89, log2 (NFE2L2 siRNA): -1.678
PSMD12 mRNA, mean of log2-transformed values (NFE2L2 siRNA): 1.979
Mean diff, of log2-transformed values, DMSO vs. RUN89 (Non transfected): -0.3265
NFE2L2 mRNA, mean diff DMSO vs. RUN89, log2 (Non transfected): -0.3265
PSMB7 mRNA, mean diff DMSO vs. RUN89, log2 (Non transfected): -0.7476
PSMB7 mRNA, mean of log2-transformed values (Non transfected): 0.7599
PSMD12 mRNA, mean diff DMSO vs. RUN89, log2 (Non transfected): -1.909
PSMD12 mRNA, mean of log2-transformed values (Non transfected): 2.076
NFE2L1 mRNA, mean diff between siRNA treatments, log2 [1]: 0.3437
NFE2L2 mRNA, mean diff between siRNA treatments, log2 [1]: 2.749
PSMB7 mRNA, mean diff between siRNA treatments, log2 [1]: -0.0664
PSMD12 mRNA, mean diff between siRNA treatments, log2 [1]: 0.01218
NFE2L1 mRNA, mean diff between siRNA treatments, log2 (NFE2L1 siRNA vs. NFE2L2 siRNA): 1.867
NFE2L2 mRNA, mean diff between siRNA treatments, log2 (NFE2L1 siRNA vs. NFE2L2 siRNA): 2.85
PSMB7 mRNA, mean diff between siRNA treatments, log2 (NFE2L1 siRNA vs. NFE2L2 siRNA): -0.5614
PSMD12 mRNA, mean diff between siRNA treatments, log2 (NFE2L1 siRNA vs. NFE2L2 siRNA): -0.5664
NFE2L1 mRNA, mean diff between siRNA treatments, log2 [2]: -1.523
NFE2L2 mRNA, mean diff between siRNA treatments, log2 [2]: -0.1013
PSMB7 mRNA, mean diff between siRNA treatments, log2 [2]: 0.495
PSMD12 mRNA, mean diff between siRNA treatments, log2 [2]: 0.5786
NFE2L1 mRNA, mean diff between siRNA treatments, log2 [3]: -2.639
NFE2L2 mRNA, mean diff between siRNA treatments, log2 [3]: 3.437
PSMB7 mRNA, mean diff between siRNA treatments, log2 [3]: 0.7651
PSMD12 mRNA, mean diff between siRNA treatments, log2 [3]: 0.6755
NFE2L1 mRNA, mean diff between siRNA treatments, log2 [4]: -2.982
NFE2L2 mRNA, mean diff between siRNA treatments, log2 [4]: 0.6883
PSMB7 mRNA, mean diff between siRNA treatments, log2 [4]: 0.8315
PSMD12 mRNA, mean diff between siRNA treatments, log2 [4]: 0.6633
NFE2L1 mRNA, mean diff between siRNA treatments, log2 [5]: -1.115
NFE2L2 mRNA, mean diff between siRNA treatments, log2 [5]: 3.539
PSMB7 mRNA, mean diff between siRNA treatments, log2 [5]: 0.27
PSMD12 mRNA, mean diff between siRNA treatments, log2 [5]: 0.09696
NFE2L2 mRNA, mean diff between siRNA treatments, log2 [6]: -0.01225
PSMB7 mRNA, mean diff between siRNA treatments, log2 [6]: 0.1431
PSMD12 mRNA, mean diff between siRNA treatments, log2 [6]: -0.01734
NFE2L1 mRNA, mean diff between siRNA treatments, log2 [7]: -2.465
NFE2L2 mRNA, mean diff between siRNA treatments, log2 [7]: 3.45
PSMB7 mRNA, mean diff between siRNA treatments, log2 [7]: 0.622
PSMD12 mRNA, mean diff between siRNA treatments, log2 [7]: 0.6929
NFE2L1 mRNA, mean diff between siRNA treatments, log2 [8]: -2.808
NFE2L2 mRNA, mean diff between siRNA treatments, log2 [8]: 0.7005
PSMB7 mRNA, mean diff between siRNA treatments, log2 [8]: 0.6884
PSMD12 mRNA, mean diff between siRNA treatments, log2 [8]: 0.6807
NFE2L1 mRNA, mean diff between siRNA treatments, log2 [9]: -0.9417
NFE2L2 mRNA, mean diff between siRNA treatments, log2 [9]: 3.551
PSMB7 mRNA, mean diff between siRNA treatments, log2 [9]: 0.127
PSMD12 mRNA, mean diff between siRNA treatments, log2 [9]: 0.1143
Mean diff, of log2-transformed values, DMSO vs. RUN89 (Scramble control siRNA): -0.3474
NFE2L1 mRNA, mean diff DMSO vs. RUN89, log2 (Scramble control siRNA): 0.6041
NFE2L1 mRNA, mean of log2-transformed values (Scramble control siRNA): 0.616
NFE2L2 mRNA, mean diff DMSO vs. RUN89, log2 (Scramble control siRNA): -0.3474
PSMB7 mRNA, mean diff DMSO vs. RUN89, log2 (Scramble control siRNA): -0.6138
PSMB7 mRNA, mean of log2-transformed values (Scramble control siRNA): 0.6168
PSMD12 mRNA, mean diff DMSO vs. RUN89, log2 (Scramble control siRNA): -2.092
PSMD12 mRNA, mean of log2-transformed values (Scramble control siRNA): 2.093
NFE2L1 mRNA, mean of log2-transformed values (row mean) (mean over all siRNA treatments): -0.5922
NFE2L2 mRNA, mean of log2-transformed values (row mean) (mean over all siRNA treatments): -1.194
PSMB7 mRNA, mean of log2-transformed values (row mean) (mean over all siRNA treatments): 0.3579
PSMD12 mRNA, mean of log2-transformed values (row mean) (mean over all siRNA treatments): 1.792
NFE2L1 mRNA, difference between means (DMSO - RUN89), log2 (over all siRNA treatments): -0.4084
NFE2L2 mRNA, difference between means (DMSO - RUN89), log2 (over all siRNA treatments): -0.02122
PSMB7 mRNA, difference between means (DMSO - RUN89), log2 (over all siRNA treatments): -0.3742
PSMD12 mRNA, difference between means (DMSO - RUN89), log2 (over all siRNA treatments): -1.633
